Assay results from US10667512B2, “Terpene-containing compositions and methods of making and using them” (Eden Research PLC, priority 2005, dated 2020).
Where two headings read alike, the source gives them in different places.

Columns and labels:
[1] = test system: E. coli; conditions: cited from earlier work
[2] = test system: S. aureus; experiment: MIC of terpene emulsions and fresh or freeze-dried Baker's YP / SAF Mannan encapsulated terpenes; assay type: cell-based; conditions: for MIC, Bakers Freeze Dried / MIC, Bakers Fresh: encapsulated in Baker's YP; for MIC, SAF Mannan Freeze Dried / MIC, SAF Mannan Fresh: encapsulated in SAF Mannan; for MIC, Emulsion: terpene emulsion
Method: The results of a protocol performed to compare the MIC of fresh versus freeze dried hollow glucan particle encapsulated terpene formulations are shown below in Table 13. A simple terpene emulsion was also tested and the results are shown for comparison.

[3] = Terpene loading into yeast particles, absence of free terpene after centrifugation; assay type: physicochemical; conditions: for terpene emulsion absorbed and encapsulated per 10 mg of YP: Baker's YP 20 mg/ml; for terpene emulsion absorbed and encapsulated per 125 mg of YP: Baker's YP 250 mg/ml; for Vol. loaded: 500 μl of 250 mg/ml; for % Loaded w/w: terpene to particle weight
Method: (§1) Samples were centrifuged at 14,000×g for 10 minutes and the appearance of free terpene floating on the aqueous layer was scored.
The expression “free terpene” refers to the visible presence of terpene in the centrifuged reaction mixture. The absence of free terpene indicates complete absorption of the terpene by the particles. The highest volume of terpene absorbed by the particles, as evidenced by the absence of free terpene, was recorded as the maximal volume of absorbed terpene emulsion.
as §1
The expression “free terpene” refers to the visible presence of terpene in the centrifuged reaction mixture. The absence of free terpene indicates complete absorption of the terpene by the YP. The highest volume of terpene absorbed by the YP, as evidenced by the absence of free terpene, was recorded as the maximal volume of absorbed terpene emulsion.
Increasing volumes of terpene emulsion were mixed with 250 mg/ml Baker's YP or 250 mg/ml SAF Mannan™ overnight at room temperature as shown in Tables 7 and 8. Samples were centrifuged at 14,000×g for 10 minutes and the appearance of free terpene floating on the aqueous layer was scored. The highest volume of terpene emulsion absorbed by Baker's YP or SAF Mannan™ as evidenced by the absence of free terpene was recorded as the volume of absorbed terpene emulsion. Colour of encapsulated terpenes in the pellet was recorded.
Percentage loaded represents a ratio of the amount of terpene loaded to the amount of particle present (weight for weight).

[4] = assay type: physicochemical
Method: The reactions were incubated for 1, 3, 6, 9 and 24 hours at room temperature or 37° C. After incubation samples were centrifuged at 14,000×g for 10 minutes and the appearance of free terpene floating on the aqueous layer was scored. The highest volume of terpene absorbed by the particles as evidenced by the absence of free terpene was recorded as the volume of absorbed terpene emulsion. Colour of the encapsulated pellet was scored at 24 hours.

[5] = Citral solution and stable suspension; assay type: physicochemical
Text: In one embodiment the terpene component includes one or more terpenes which contain oxygen.

[6] = test system: H. pylori; conditions: in vitro; cited from earlier work

Compound	concentration in growth media that reduced the concentration of E. coli [1]	concentration with bactericidal effect [1]	MIC, Bakers Freeze Dried [2]	MIC, Bakers Fresh [2]	MIC, SAF Mannan Freeze Dried [2]	MIC, SAF Mannan Fresh [2]	MIC, Emulsion [2]	terpene emulsion absorbed and encapsulated per 10 mg of YP [3]	terpene emulsion absorbed and encapsulated per 125 mg of YP [3]	Vol. loaded ([3]; maximal loading in Baker's YP)	% Loaded w/w ([3]; maximal loading in Baker's YP)	Vol. loaded ([3]; maximal loading in SAF Mannan)	% Loaded w/w ([3]; maximal loading in SAF Mannan)	protection of citral from oxidation ([4]; in Baker's YP)	protection of citral from oxidation ([4]; in SAF Mannan)	concentration up to which a solution can be made [5]	concentration up to which a stable suspension can be formed [5]	concentration that inhibited the growth of H. pylori [6]
CC(C)=CCCC(C)=CC=O [Citral, 3,7-dimethyl-2,6-octadien-1-al]	more than 0.01%	0.08%	0.05 μg/ml terpene	0.01 μg/ml terpene	>0.03 μg/ml terpene	0.01 μg/ml terpene	0.94 μg/ml terpene	at least 5 μl	at least 75 μl	75 µL	67% w/w	150 µL	133% w/w	not by the Baker's YP	protected from oxidation	up to 500 ppm	up to 2500 ppm	–
L-carvone	–	–	>0.04 μg/ml terpene	0.1 μg/ml terpene	>0.02 μg/ml terpene	0.01 μg/ml terpene	3.75 μg/ml terpene	at least 16.5 μl	at least 112.5 μl	37.5 µL	33.3 % w/w	112.5 µL	100% w/w	–	–	–	–	–
CC(C)=CCC/C(C)=C/CO [Geraniol]	–	–	0.06 μg/ml terpene	0.03 μg/ml terpene	>0.03 μg/ml terpene	0.02 μg/ml terpene	0.47 μg/ml terpene	–	–	75 µL	67% w/w	150 µL	133% w/w	–	–	–	–	2 mg/L
C=CCc1ccc(O)c(OC)c1 [Eugenol]	–	–	0.05 μg/ml terpene	0.03 μg/ml terpene	0.05 μg/ml terpene	0.01 μg/ml terpene	0.12 μg/ml terpene	–	–	75 µL	67% w/w	112.5 µL	100% w/w	–	–	–	–	–
